Article PMC8333062, “Chemical tools for epichaperome-mediated interactome dysfunctions of the central nervous system” (Nature Communications, 2021)
Read-outs that look alike come from different tables or passages of the source.

Assays:
Assay in all cases: scanEDGE off-target screen
Format in all cases: binding
[1] = molecular target: T1, 97 kinases (Homo sapiens, UniProt O00750); conditions: read-out: %Ctrl PIK3C2B
T1 construct: purchased Ambit Biosciences (scanEDGE / KINOMEscan) scanEDGE 97 kinase panel; host or cells: T7 phage in E. coli BL21-derived host; remaining kinases in HEK-293 cells

[2] = molecular target: T2, 97 kinases (Homo sapiens, UniProt O14965); conditions: read-out: %Ctrl AURKA
T2 construct: purchased Ambit Biosciences (scanEDGE / KINOMEscan) scanEDGE 97 kinase panel; host or cells: T7 phage in E. coli BL21-derived host; remaining kinases in HEK-293 cells

[3] = molecular target: T3, 97 kinases (Homo sapiens, UniProt O96013); conditions: read-out: %Ctrl PAK4
T3 construct: purchased Ambit Biosciences (scanEDGE / KINOMEscan) scanEDGE 97 kinase panel; host or cells: T7 phage in E. coli BL21-derived host; remaining kinases in HEK-293 cells

[4] = molecular target: T4, 97 kinases (Homo sapiens, UniProt P00519)
T4 construct: purchased Ambit Biosciences (scanEDGE / KINOMEscan) scanEDGE 97 kinase panel; host or cells: T7 phage in E. coli BL21-derived host; remaining kinases in HEK-293 cells

[5] = molecular target: T5, 97 kinases (Homo sapiens, UniProt P00519, T315I); conditions: read-out: %Ctrl ABL1(T315I)-phosphorylated
T5 construct: purchased Ambit Biosciences (scanEDGE / KINOMEscan) scanEDGE 97 kinase panel; host or cells: T7 phage in E. coli BL21-derived host; remaining kinases in HEK-293 cells

[6] = molecular target: T6, 97 kinases (Homo sapiens, UniProt P00533); conditions: read-out: %Ctrl EGFR
T6 construct: purchased Ambit Biosciences (scanEDGE / KINOMEscan) scanEDGE 97 kinase panel; host or cells: T7 phage in E. coli BL21-derived host; remaining kinases in HEK-293 cells

[7] = molecular target: T7, 97 kinases (Homo sapiens, UniProt P04049); conditions: read-out: %Ctrl RAF1
T7 construct: purchased Ambit Biosciences (scanEDGE / KINOMEscan) scanEDGE 97 kinase panel; host or cells: T7 phage in E. coli BL21-derived host; remaining kinases in HEK-293 cells

[8] = molecular target: T8, 97 kinases (Homo sapiens, UniProt P04629); conditions: read-out: %Ctrl TRKA
T8 construct: purchased Ambit Biosciences (scanEDGE / KINOMEscan) scanEDGE 97 kinase panel; host or cells: T7 phage in E. coli BL21-derived host; remaining kinases in HEK-293 cells

[9] = molecular target: T9, 97 kinases (Homo sapiens, UniProt P10721); conditions: read-out: %Ctrl KIT
T9 construct: purchased Ambit Biosciences (scanEDGE / KINOMEscan) scanEDGE 97 kinase panel; host or cells: T7 phage in E. coli BL21-derived host; remaining kinases in HEK-293 cells

[10] = molecular target: T10, 97 kinases (Homo sapiens, UniProt P11309); conditions: read-out: %Ctrl PIM1
T10 construct: purchased Ambit Biosciences (scanEDGE / KINOMEscan) scanEDGE 97 kinase panel; host or cells: T7 phage in E. coli BL21-derived host; remaining kinases in HEK-293 cells

[11] = molecular target: T11, 97 kinases (Homo sapiens, UniProt P12931); conditions: read-out: %Ctrl SRC
T11 construct: purchased Ambit Biosciences (scanEDGE / KINOMEscan) scanEDGE 97 kinase panel; host or cells: T7 phage in E. coli BL21-derived host; remaining kinases in HEK-293 cells

[12] = molecular target: T12, 97 kinases (Homo sapiens, UniProt P15056, V600E); conditions: read-out: %Ctrl BRAF(V600E)
T12 construct: purchased Ambit Biosciences (scanEDGE / KINOMEscan) scanEDGE 97 kinase panel; host or cells: T7 phage in E. coli BL21-derived host; remaining kinases in HEK-293 cells

[13] = molecular target: T13, 97 kinases (Homo sapiens, UniProt P16234); conditions: read-out: %Ctrl PDGFRA
T13 construct: purchased Ambit Biosciences (scanEDGE / KINOMEscan) scanEDGE 97 kinase panel; host or cells: T7 phage in E. coli BL21-derived host; remaining kinases in HEK-293 cells

[14] = molecular target: T14, 97 kinases (Homo sapiens, UniProt P17612); conditions: read-out: %Ctrl PKAC-alpha
T14 construct: purchased Ambit Biosciences (scanEDGE / KINOMEscan) scanEDGE 97 kinase panel; host or cells: T7 phage in E. coli BL21-derived host; remaining kinases in HEK-293 cells

[15] = molecular target: T15, 97 kinases (Homo sapiens, UniProt P27361); conditions: read-out: %Ctrl ERK1
T15 construct: purchased Ambit Biosciences (scanEDGE / KINOMEscan) scanEDGE 97 kinase panel; host or cells: T7 phage in E. coli BL21-derived host; remaining kinases in HEK-293 cells

[16] = molecular target: T16, 97 kinases (Homo sapiens, UniProt P29317); conditions: read-out: %Ctrl EPHA2
T16 construct: purchased Ambit Biosciences (scanEDGE / KINOMEscan) scanEDGE 97 kinase panel; host or cells: T7 phage in E. coli BL21-derived host; remaining kinases in HEK-293 cells

[17] = molecular target: T17, 97 kinases (Homo sapiens, UniProt P30530); conditions: read-out: %Ctrl AXL
T17 construct: purchased Ambit Biosciences (scanEDGE / KINOMEscan) scanEDGE 97 kinase panel; host or cells: T7 phage in E. coli BL21-derived host; remaining kinases in HEK-293 cells

[18] = molecular target: T18, 97 kinases (Homo sapiens, UniProt P31751); conditions: read-out: %Ctrl AKT2
T18 construct: purchased Ambit Biosciences (scanEDGE / KINOMEscan) scanEDGE 97 kinase panel; host or cells: T7 phage in E. coli BL21-derived host; remaining kinases in HEK-293 cells

[19] = molecular target: T19, 97 kinases (Homo sapiens, UniProt P35968); conditions: read-out: %Ctrl VEGFR2
T19 construct: purchased Ambit Biosciences (scanEDGE / KINOMEscan) scanEDGE 97 kinase panel; host or cells: T7 phage in E. coli BL21-derived host; remaining kinases in HEK-293 cells

[20] = molecular target: T20, 97 kinases (Homo sapiens, UniProt P36507); conditions: read-out: %Ctrl MEK2
T20 construct: purchased Ambit Biosciences (scanEDGE / KINOMEscan) scanEDGE 97 kinase panel; host or cells: T7 phage in E. coli BL21-derived host; remaining kinases in HEK-293 cells

[21] = molecular target: T21, 97 kinases (Homo sapiens, UniProt P45984); conditions: read-out: %Ctrl JNK2
T21 construct: purchased Ambit Biosciences (scanEDGE / KINOMEscan) scanEDGE 97 kinase panel; host or cells: T7 phage in E. coli BL21-derived host; remaining kinases in HEK-293 cells

[22] = molecular target: T22, 97 kinases (Homo sapiens, UniProt P48736); conditions: read-out: %Ctrl PIK3CG
T22 construct: purchased Ambit Biosciences (scanEDGE / KINOMEscan) scanEDGE 97 kinase panel; host or cells: T7 phage in E. coli BL21-derived host; remaining kinases in HEK-293 cells

[23] = molecular target: T23, 97 kinases (Homo sapiens, UniProt P49137); conditions: read-out: %Ctrl MAPKAPK2
T23 construct: purchased Ambit Biosciences (scanEDGE / KINOMEscan) scanEDGE 97 kinase panel; host or cells: T7 phage in E. coli BL21-derived host; remaining kinases in HEK-293 cells

[24] = molecular target: T24, 97 kinases (Homo sapiens, UniProt P52333); conditions: read-out: %Ctrl JAK3(JH1domain-catalytic)
T24 construct: purchased Ambit Biosciences (scanEDGE / KINOMEscan) scanEDGE 97 kinase panel; host or cells: T7 phage in E. coli BL21-derived host; remaining kinases in HEK-293 cells

[25] = molecular target: T25, 97 kinases (Homo sapiens, UniProt P78368); conditions: read-out: %Ctrl CSNK1G2
T25 construct: purchased Ambit Biosciences (scanEDGE / KINOMEscan) scanEDGE 97 kinase panel; host or cells: T7 phage in E. coli BL21-derived host; remaining kinases in HEK-293 cells

[26] = molecular target: T26, 97 kinases (Homo sapiens, UniProt P80192); conditions: read-out: %Ctrl MLK1
T26 construct: purchased Ambit Biosciences (scanEDGE / KINOMEscan) scanEDGE 97 kinase panel; host or cells: T7 phage in E. coli BL21-derived host; remaining kinases in HEK-293 cells

[27] = molecular target: T27, 97 kinases (Homo sapiens, UniProt Q00526); conditions: read-out: %Ctrl CDK3
T27 construct: purchased Ambit Biosciences (scanEDGE / KINOMEscan) scanEDGE 97 kinase panel; host or cells: T7 phage in E. coli BL21-derived host; remaining kinases in HEK-293 cells

[28] = molecular target: T28, 97 kinases (Homo sapiens, UniProt Q02750); conditions: read-out: %Ctrl MEK1
T28 construct: purchased Ambit Biosciences (scanEDGE / KINOMEscan) scanEDGE 97 kinase panel; host or cells: T7 phage in E. coli BL21-derived host; remaining kinases in HEK-293 cells

[29] = molecular target: T29, 97 kinases (Homo sapiens, UniProt Q05397); conditions: read-out: %Ctrl FAK
T29 construct: purchased Ambit Biosciences (scanEDGE / KINOMEscan) scanEDGE 97 kinase panel; host or cells: T7 phage in E. coli BL21-derived host; remaining kinases in HEK-293 cells

[30] = molecular target: T30, 97 kinases (Homo sapiens, UniProt Q13873); conditions: read-out: %Ctrl BMPR2
T30 construct: purchased Ambit Biosciences (scanEDGE / KINOMEscan) scanEDGE 97 kinase panel; host or cells: T7 phage in E. coli BL21-derived host; remaining kinases in HEK-293 cells

[31] = molecular target: T31, 97 kinases (Homo sapiens, UniProt Q15303); conditions: read-out: %Ctrl ERBB4
T31 construct: purchased Ambit Biosciences (scanEDGE / KINOMEscan) scanEDGE 97 kinase panel; host or cells: T7 phage in E. coli BL21-derived host; remaining kinases in HEK-293 cells

[32] = molecular target: T32, 97 kinases (Homo sapiens, UniProt Q8IYT8); conditions: read-out: %Ctrl ULK2
T32 construct: purchased Ambit Biosciences (scanEDGE / KINOMEscan) scanEDGE 97 kinase panel; host or cells: T7 phage in E. coli BL21-derived host; remaining kinases in HEK-293 cells

[33] = molecular target: T33, 97 kinases (Homo sapiens, UniProt Q8NI60); conditions: read-out: %Ctrl ADCK3
T33 construct: purchased Ambit Biosciences (scanEDGE / KINOMEscan) scanEDGE 97 kinase panel; host or cells: T7 phage in E. coli BL21-derived host; remaining kinases in HEK-293 cells

[34] = molecular target: T34, 97 kinases (Homo sapiens, UniProt Q9BUB5); conditions: read-out: %Ctrl MKNK1
T34 construct: purchased Ambit Biosciences (scanEDGE / KINOMEscan) scanEDGE 97 kinase panel; host or cells: T7 phage in E. coli BL21-derived host; remaining kinases in HEK-293 cells

[35] = molecular target: T35, 97 kinases (Homo sapiens, UniProt Q9BXA7); conditions: read-out: %Ctrl TSSK1B
T35 construct: purchased Ambit Biosciences (scanEDGE / KINOMEscan) scanEDGE 97 kinase panel; host or cells: T7 phage in E. coli BL21-derived host; remaining kinases in HEK-293 cells

[36] = molecular target: T36, 97 kinases (Homo sapiens, UniProt Q9H4B4); conditions: read-out: %Ctrl PLK3
T36 construct: purchased Ambit Biosciences (scanEDGE / KINOMEscan) scanEDGE 97 kinase panel; host or cells: T7 phage in E. coli BL21-derived host; remaining kinases in HEK-293 cells

[37] = molecular target: T37, 97 kinases (Homo sapiens, UniProt Q9UM73); conditions: read-out: %Ctrl ALK
T37 construct: purchased Ambit Biosciences (scanEDGE / KINOMEscan) scanEDGE 97 kinase panel; host or cells: T7 phage in E. coli BL21-derived host; remaining kinases in HEK-293 cells

[38] = molecular target: T38, 97 kinases (Homo sapiens, UniProt Q9Y6R4); conditions: read-out: %Ctrl MAP3K4
T38 construct: purchased Ambit Biosciences (scanEDGE / KINOMEscan) scanEDGE 97 kinase panel; host or cells: T7 phage in E. coli BL21-derived host; remaining kinases in HEK-293 cells

T35 sequence (Q9BXA7 whole entry): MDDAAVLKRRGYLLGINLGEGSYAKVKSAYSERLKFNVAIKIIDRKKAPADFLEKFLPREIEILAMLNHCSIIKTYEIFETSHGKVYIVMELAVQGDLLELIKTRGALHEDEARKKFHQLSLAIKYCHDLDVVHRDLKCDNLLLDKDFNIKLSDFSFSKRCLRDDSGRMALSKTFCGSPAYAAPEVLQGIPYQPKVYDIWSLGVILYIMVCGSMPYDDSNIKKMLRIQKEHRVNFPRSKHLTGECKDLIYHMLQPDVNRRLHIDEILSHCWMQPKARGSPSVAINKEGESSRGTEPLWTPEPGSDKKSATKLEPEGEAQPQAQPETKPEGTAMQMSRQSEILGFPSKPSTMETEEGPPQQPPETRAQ
T30 sequence (Q13873 27-1038): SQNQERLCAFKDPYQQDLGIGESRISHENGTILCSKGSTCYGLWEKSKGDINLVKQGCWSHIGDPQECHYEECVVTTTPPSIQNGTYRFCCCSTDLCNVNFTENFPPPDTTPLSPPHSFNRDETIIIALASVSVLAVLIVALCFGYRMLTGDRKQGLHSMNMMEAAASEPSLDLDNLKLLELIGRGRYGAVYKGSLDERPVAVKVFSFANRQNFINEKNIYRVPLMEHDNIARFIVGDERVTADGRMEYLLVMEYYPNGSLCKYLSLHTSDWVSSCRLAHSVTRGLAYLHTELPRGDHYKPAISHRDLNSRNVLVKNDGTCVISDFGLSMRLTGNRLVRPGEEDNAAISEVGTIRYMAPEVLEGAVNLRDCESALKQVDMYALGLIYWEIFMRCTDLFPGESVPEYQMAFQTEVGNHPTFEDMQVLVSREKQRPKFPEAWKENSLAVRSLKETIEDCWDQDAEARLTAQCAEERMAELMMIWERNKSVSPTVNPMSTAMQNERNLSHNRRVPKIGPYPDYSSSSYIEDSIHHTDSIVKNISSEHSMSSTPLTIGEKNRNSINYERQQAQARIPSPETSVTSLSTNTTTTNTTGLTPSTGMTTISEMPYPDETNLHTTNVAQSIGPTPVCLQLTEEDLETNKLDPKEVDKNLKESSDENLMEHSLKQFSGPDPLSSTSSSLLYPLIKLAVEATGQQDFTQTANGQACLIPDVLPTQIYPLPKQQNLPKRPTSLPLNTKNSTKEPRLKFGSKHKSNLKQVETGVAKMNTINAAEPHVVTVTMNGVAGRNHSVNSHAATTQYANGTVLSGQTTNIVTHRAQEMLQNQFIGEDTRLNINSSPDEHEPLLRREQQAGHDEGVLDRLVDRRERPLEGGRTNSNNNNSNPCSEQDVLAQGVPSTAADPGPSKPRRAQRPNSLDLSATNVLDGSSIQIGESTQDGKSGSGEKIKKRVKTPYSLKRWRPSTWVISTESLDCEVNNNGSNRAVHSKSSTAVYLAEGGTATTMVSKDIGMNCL
T37 sequence (Q9UM73 19-1620): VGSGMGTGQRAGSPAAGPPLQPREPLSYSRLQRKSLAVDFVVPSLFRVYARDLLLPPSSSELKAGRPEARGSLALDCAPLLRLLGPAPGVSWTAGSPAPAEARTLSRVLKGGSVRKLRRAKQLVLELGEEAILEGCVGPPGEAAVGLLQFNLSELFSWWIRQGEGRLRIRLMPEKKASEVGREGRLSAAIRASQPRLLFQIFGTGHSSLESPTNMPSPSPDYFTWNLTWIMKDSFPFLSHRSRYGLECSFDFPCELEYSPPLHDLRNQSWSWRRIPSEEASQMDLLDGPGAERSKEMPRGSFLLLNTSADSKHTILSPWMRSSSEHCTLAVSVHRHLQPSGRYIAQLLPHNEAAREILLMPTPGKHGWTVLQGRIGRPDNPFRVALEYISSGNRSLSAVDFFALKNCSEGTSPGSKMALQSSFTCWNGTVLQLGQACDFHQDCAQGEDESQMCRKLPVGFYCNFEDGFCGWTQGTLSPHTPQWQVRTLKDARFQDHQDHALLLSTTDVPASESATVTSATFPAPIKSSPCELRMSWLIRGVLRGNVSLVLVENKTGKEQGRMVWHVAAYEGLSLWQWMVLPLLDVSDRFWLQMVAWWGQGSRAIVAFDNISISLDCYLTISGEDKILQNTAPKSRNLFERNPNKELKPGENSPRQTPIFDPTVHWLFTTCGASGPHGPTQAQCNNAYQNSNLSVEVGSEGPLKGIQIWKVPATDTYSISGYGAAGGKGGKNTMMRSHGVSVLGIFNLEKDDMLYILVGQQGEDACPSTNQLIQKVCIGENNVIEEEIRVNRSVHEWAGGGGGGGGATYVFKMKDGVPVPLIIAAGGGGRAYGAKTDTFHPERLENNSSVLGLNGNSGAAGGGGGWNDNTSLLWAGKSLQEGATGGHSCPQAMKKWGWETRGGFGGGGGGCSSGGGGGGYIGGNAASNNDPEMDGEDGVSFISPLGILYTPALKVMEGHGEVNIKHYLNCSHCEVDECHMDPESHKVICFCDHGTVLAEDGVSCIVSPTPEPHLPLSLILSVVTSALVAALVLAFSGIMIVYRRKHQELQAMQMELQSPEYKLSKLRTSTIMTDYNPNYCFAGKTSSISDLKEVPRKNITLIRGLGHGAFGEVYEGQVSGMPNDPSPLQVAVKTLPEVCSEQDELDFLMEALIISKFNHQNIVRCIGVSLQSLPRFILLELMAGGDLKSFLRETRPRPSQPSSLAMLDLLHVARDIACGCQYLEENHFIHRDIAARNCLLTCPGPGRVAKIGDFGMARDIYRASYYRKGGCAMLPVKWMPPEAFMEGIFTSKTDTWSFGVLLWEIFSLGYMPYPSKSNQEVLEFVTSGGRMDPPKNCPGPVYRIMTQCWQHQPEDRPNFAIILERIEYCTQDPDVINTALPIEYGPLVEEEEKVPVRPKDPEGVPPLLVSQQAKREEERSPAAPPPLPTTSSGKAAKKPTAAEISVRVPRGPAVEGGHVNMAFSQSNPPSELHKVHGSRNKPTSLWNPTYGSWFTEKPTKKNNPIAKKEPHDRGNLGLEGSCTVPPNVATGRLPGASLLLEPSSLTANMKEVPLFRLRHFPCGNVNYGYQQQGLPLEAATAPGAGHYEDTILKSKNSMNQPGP
T36 sequence (Q9H4B4 whole entry): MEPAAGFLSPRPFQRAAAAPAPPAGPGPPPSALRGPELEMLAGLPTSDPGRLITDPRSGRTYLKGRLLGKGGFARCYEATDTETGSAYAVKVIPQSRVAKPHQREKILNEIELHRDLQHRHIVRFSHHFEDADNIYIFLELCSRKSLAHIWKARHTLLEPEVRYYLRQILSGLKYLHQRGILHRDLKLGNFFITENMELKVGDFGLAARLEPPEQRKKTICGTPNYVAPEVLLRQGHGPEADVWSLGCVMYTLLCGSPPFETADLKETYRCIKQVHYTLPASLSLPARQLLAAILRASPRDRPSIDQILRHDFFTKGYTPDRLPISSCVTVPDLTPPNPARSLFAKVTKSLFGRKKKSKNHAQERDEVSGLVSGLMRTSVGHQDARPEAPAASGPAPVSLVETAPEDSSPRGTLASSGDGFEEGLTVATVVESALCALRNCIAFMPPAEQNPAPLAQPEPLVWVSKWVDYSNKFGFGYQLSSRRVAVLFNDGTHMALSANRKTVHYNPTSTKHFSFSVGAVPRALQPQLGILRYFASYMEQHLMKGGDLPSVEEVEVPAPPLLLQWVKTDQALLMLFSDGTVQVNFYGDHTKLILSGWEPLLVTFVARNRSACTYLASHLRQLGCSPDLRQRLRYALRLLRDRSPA
T25 sequence (P78368 whole entry): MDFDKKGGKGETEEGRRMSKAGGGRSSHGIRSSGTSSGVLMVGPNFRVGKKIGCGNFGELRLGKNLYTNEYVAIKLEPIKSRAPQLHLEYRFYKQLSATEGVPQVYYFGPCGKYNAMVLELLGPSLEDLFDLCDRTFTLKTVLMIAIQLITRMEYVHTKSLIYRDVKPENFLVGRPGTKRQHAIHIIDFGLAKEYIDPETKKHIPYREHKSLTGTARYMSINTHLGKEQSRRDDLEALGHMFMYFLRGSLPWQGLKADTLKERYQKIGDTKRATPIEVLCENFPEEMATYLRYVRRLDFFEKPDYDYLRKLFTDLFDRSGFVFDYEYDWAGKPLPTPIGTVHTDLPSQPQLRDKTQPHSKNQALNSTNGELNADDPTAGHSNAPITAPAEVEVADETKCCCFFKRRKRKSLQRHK
T15 sequence (P27361 whole entry): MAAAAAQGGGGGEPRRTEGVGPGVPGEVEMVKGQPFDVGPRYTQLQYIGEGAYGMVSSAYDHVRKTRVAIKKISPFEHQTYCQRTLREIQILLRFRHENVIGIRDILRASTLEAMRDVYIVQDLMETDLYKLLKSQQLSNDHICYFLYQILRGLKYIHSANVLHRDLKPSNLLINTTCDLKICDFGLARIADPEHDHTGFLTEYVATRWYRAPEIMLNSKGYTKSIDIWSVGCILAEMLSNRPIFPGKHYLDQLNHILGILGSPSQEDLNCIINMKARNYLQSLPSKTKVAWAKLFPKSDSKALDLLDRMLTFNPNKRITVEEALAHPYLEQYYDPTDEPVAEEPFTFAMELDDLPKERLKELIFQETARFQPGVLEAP
T7 sequence (P04049 whole entry): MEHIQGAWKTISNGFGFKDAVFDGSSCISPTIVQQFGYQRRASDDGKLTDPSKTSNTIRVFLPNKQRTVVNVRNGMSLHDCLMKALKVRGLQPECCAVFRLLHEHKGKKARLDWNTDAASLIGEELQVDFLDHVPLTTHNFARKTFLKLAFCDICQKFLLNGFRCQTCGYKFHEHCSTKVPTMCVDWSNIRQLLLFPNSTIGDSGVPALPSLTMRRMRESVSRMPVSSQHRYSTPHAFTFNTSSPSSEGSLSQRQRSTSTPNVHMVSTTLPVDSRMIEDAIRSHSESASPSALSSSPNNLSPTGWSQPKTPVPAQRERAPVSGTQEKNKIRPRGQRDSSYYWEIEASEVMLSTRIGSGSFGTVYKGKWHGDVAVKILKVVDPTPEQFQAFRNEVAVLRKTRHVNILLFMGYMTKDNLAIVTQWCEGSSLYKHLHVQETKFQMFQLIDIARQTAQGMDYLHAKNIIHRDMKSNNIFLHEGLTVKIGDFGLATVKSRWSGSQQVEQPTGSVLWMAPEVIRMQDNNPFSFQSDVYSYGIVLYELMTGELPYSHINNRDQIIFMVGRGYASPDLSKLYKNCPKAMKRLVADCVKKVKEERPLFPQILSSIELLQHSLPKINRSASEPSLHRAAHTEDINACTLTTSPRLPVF

CC(C)(C)CNCCn1c(Sc2cc3c(cc2I)OCO3)nc2c(N)ncnc21 [Compound 85] showed a remaining binding at 10 µM [1] of 96%, a remaining binding at 10 µM [2] of 96% and a remaining binding at 10 µM [3] of 100%. It also gave a remaining binding at 10 µM ([4]; read-out: %Ctrl ABL1-nonphosphorylated) of 50%, a remaining binding at 10 µM ([4]; read-out: %Ctrl ABL1-phosphorylated) of 70% and a remaining binding at 10 µM [5] of 96%. It also gave a remaining binding at 10 µM [6] of 96%, a remaining binding at 10 µM [7] of 74% and a remaining binding at 10 µM [8] of 95%. The remaining binding at 10 µM [9] was 99%, the remaining binding at 10 µM [10] was 79% and the remaining binding at 10 µM [11] was 100%. It also gave a remaining binding at 10 µM [12] of 97%, a remaining binding at 10 µM [13] of 100% and a remaining binding at 10 µM [14] of 87%. The remaining binding at 10 µM [15] was 100%, the remaining binding at 10 µM [16] was 91% and the remaining binding at 10 µM [17] was 100%. For the same molecule, the remaining binding at 10 µM [18] was 87%, the remaining binding at 10 µM [19] was 98% and the remaining binding at 10 µM [20] was 76%. The remaining binding at 10 µM [21] was 93%, the remaining binding at 10 µM [22] was 94% and the remaining binding at 10 µM [23] was 96%. It also gave a remaining binding at 10 µM [24] of 86%, a remaining binding at 10 µM [25] of 100% and a remaining binding at 10 µM [26] of 100%. For the same molecule, the remaining binding at 10 µM [27] was 100%, the remaining binding at 10 µM [28] was 99% and the remaining binding at 10 µM [29] was 96%. It also gave a remaining binding at 10 µM [30] of 97%, a remaining binding at 10 µM [31] of 100% and a remaining binding at 10 µM [32] of 94%. For the same molecule, the remaining binding at 10 µM [33] was 92%, the remaining binding at 10 µM [34] was 100% and the remaining binding at 10 µM [35] was 51%. For the same molecule, the remaining binding at 10 µM [36] was 88%, the remaining binding at 10 µM [37] was 93% and the remaining binding at 10 µM [38] was 49%.
